Columns and labels:
[1] = tested on: PC-3 cells; test: Fluorescence-based migration assay toward hrMCP-1; type: cell-based, human; conditions: MCP-1 1-100 ng/mL
Protocol: (§1) Flouresence-based Migration Assay—Cell migration was assessed using the Innocyte Cell Migration Assay (Calbiochem, Inc.) following the manufacturer's instructions. Briefly, increasing concentrations of MCP-1 (1-100 ng/mL) in the presence and absence of CCR2 inhibitors or neutralizing antibodies were added to the lower chamber of a 96 well plate. Cells were harvested by 0.5 μM EDTA release and resuspended at 2.5×10^5 cells/mL in serum free media. 2.5×10^4 cells were added to the upper chamber and allowed to migrate through the membrane with 8 μm pores for 24 hours at 37° C. and 5% CO2 atmosphere. Cells that migrated through the membrane were detached and labeled with Calcein AM and fluorescence was measured using fluorescent plate reader with excitation wavelength of 485 nm and emission wavelength of 520 nm. The experiments were repeated twice and each conditioned was performed in quadruplicate in each experiment.

[2] = tested on: VCaP cells; test: Fluorescence-based migration assay toward hrMCP-1; type: cell-based, human; conditions: MCP-1 1-100 ng/mL
Protocol: as §1

[3] = tested on: PC-3Luc cells; test: Bioluminescent in vivo model of metastasis (Examples 1 and 2); parameters: species or system male SCID mice; conditions: Day 35; 2 mg/Kg twice weekly i.p. from Day 14
Protocol: Bioluminescent in vivo model of metastatsis—Bioluminescent imaging of PC-3^Luc was preformed as previously described through The University of Michigan Small Animal Imaging Resource facility (MSAIR) (Kalikin 2003). Briefly, PC-3Luc cells were introduced into male SCID mice (5-6 wks) by intracardiac injections. Mice were serially imaged weekly for 6 weeks using a CCD IVIS™ system using a 50 mm lens (Xenogen Corp, Alameda, Calif.) and the results were analyzed using […] software (Xenogen Corp.). Mice were separated into one of five groups; 1) PBS control, 2) anti-hIgG control human antibody, 3) anti-cVaM control mouse antibody, 4) anti-MCP1 (human), 5) anti-MCP1/JE (mouse). Treatment began at week 2 post-intracardiac injection and mice received 2 mg/Kg antibody twice weekly by intraperitoneal injection. Mice were injected with luciferin (40 mg/mL) intraperitoneally and ventral images were acquired 15 min post-injection under 1.75% isofluorane/air anesthesia. Total tumor burden of each animal was calculated using regions of interest (ROIs) that encompassed the entire animal. Animals were sacrificed after week 6 image and individual organs were harvested and immediately placed in formalin.

[4] = tested on: PC-3Luc cells; test: Bioluminescent in vivo model of metastasis (Example 4, antibodies and/or docetaxel); parameters: species or system male SCID mice
Protocol: Bioluminescent imaging of PC-3Luc was preformed as previously described through The University of Michigan Small Animal Imaging Resource facility (MSAIR) (Loberg et al., 2006. Neoplasia. 8:578-586). Briefly, PC-3Luc cells were introduced into male SCID mice (5-6 wks of age) by intracardiac injections. Mice were serially imaged weekly for up to 12 weeks using a CCD IVIS system using a 50 mm lens (Xenogen Corp, Alameda, Calif.) and the results were analyzed using LIVING IMAGE software (Xenogen Corp.). Mice were separated into groups and treatment began at week 2 post-intracardiac injection and mice received 2 mg/Kg antibody twice weekly by intraperitoneal (i.p.) injection (for up to eight weeks) and/or 40 mg/Kg Taxotere i.p. injection once per week for three weeks. Mice were injected with luciferin (40 mg/mL) intraperitoneally and ventral images were acquired 15 min postinjection under 1.75% isofluorane/air anesthesia. Total tumor burden of each animal was calculated using regions of interest (ROIs) that encompassed the entire animal. Animals were sacrificed after week 6 image and individual organs were harvested and immediately placed in formalin.

[5] = tested on: HDMVEC (human dermal microvacular endothelial cells); test: Endothelial tube formation assay in VCaP conditioned media; type: cell-based; conditions: 30 μg/mL in VCaP conditioned media; vs isotype control antibody
Protocol: In vitro tube formation was performed as previously described (Zhou et al., Int J Cancer 110 (2004) 800-806). Growth factor reduced […] was diluted with cold serum-free medium to a concentration of 10 mg/ml. 50 μl of the solution was added to each well of a 96-well plate and allowed to form a gel at 37° C. for 30 min. HDMVEC (human dermal microvacular endothelial cells) cells (150,000 cells/ml) in VCaP conditioned media (VCaP CM) were added to each well and incubated overnight at 37° C. in 5% CO2. […] Under these conditions, EC will form delicate networks of tubes that are detectable within 2-3 h and are fully developed after 8-12 h. After overnight incubation the wells were washed, and the […] and its endothelial tubes were fixed with 3% paraformaldehyde. Tube formation was quantified by counting the number of sprouts that developed per objective field (100×) and assays were performed in triplicate from 3 independent experiments.

[6] = tested on: U937 premonocytic cells; test: Macrophage migration assay (modified Boyden chamber); type: cell-based, human; conditions: VCaP conditioned media; pre-incubation 30 μg/mL
Protocol: […] Cells were harvested by 0.5 μM EDTA release and resuspended in serum free media at 5×10^4 cells/ml. 2.5×10^4 cells were added to the upper chamber of the transwell insert and incubated for 24 hours at 37° C. and 5% CO2 atmosphere. At the end of the incubation period, the cells were fixed with 4% formaldehyde in PBS for 5 minutes. Non-adherent cells were removed from inside the inserts with cotton-tipped swabs. Cells that had migrated to the underside of the insert were stained with 0.5% crystal violet for 5 minutes and rinsed thoroughly with tap water. Inserts were allowed to dry and the cells were counted using an inverted microscope.

[7] = tested on: VCaP cells; test: Immunoblot analysis of CCL2 stimulated VCaP cells; type: cell-based, human; conditions: CCL2 100 ng/mL for 24 hours
Protocol: Cells were lysed in RIPA buffer (50 mM Tris-HCl, pH 7.4, 1% NP-40, 150 mM NaCl, 1 mM EDTA, 1 mM PMSF, 1 mM Na3VO4, 1 mM NaF, 1 μM okadaic acid and 1 μg/mL aprotinin, leupeptin and pepstatin). Proteins were separated under reducing conditions by SDS-PAGE and transferred onto nitrocellulose membranes. The membranes were blocked with 5% milk in TBST (0.1% Tween in TBS) for 1 hour at room temperature, then were incubated overnight at 4° C. with primary antibodies. Membranes were washed 3 times prior to incubation with HRP-conjugated secondary antibodies (Cell Signaling) for 1 hour at room temperature. Protein expression was visualized by ECL chemiluminescence (Promega, Madison, Wis.) and quantitated using Image J software (NCl, Bethesda, Md.).

## CNTO888: human IgG1κ antibody that neutralizes human CCL2
[1]
  effect on MCP-1 induced dose dependent migration of PC-3 cells: attenuated
[2]
  effect on MCP-1 induced dose dependent migration of VCaP cells: attenuated
[3]
  reduction in overall tumor burden compared to control antibody: 46.52%
[4]; Day 35, 2 mg/Kg twice weekly i.p. for three weeks from Day 14
  reduction in overall tumor burden compared to control antibody: 46.52%
[4]; Day 35, compared to control antibody
  reduction in tibia-specific tumor burden: 45.49%
[4]; Wk 6 = First week after cessation of Taxotere
  animals of group counted at Wk 6 (tumor regression, Table 2): 1 of 9
[4]; antibodies 2 mg/Kg i.p. twice weekly, docetaxel 40 mg/Kg i.p.
  total tumor burden at Day 35: 52.78 % of PBS-treated animals
[5]
  number of capillary-like tubes formed: significantly reduced
[6]
  number of migrating U937 cells: 225±111
[7]
  CCL2 induced Akt phosphorylation and p44/p42 MAPK phosphorylation: attenuated
